{
  "source": "patent US5571799A",
  "about": "“(2'-5') oligoadenylate analogues useful as inhibitors of host-v5.-graft response” (Basco, Ltd., priority 1994, dated 1996)",
  "key": {"[1]": {"test_system": "β-lymphocytes (murine splenocytes) stimulated with lipopolysaccharide", "experiment": "In vitro blast-transformation of murine lymphocytes, LPS (β-lymphocyte mitogen), [3H]-thymidine", "assay_type": "cell-based, mouse (CBA)", "settings": "for DNA synthesis at [^3 H]-thymidine [incorporated counts/min.]: LPS 0.1 μg/ml", "from_the_text": "The immune reactions in an organism begins with the division of lymphocytes. In vitro investigation of the lymphocyte blast-transformationreaction under the influence of mitogens makes it possible to use this model system to select chemically synthesized 2'-5'A3 analogues which suppress division of lymphocytes. Using Concanavalin A and lipopolysaccharide as mitogens, the effect of analogues on the division of T- and β-lymphocytes may be investigated.\nCBA mice 8-10 weeks old were used for these experiments. A suspension of mouse splenocytes were obtained by gently teasing spleens with forceps. Lymphocytes cultivated in flat-bottomed 96-well plates (Linbro) in RPMI-1640 medium (Flow Lab.) were supplemented with 2 mM 1-glutamine, 10 μg/ml gentamicin, 10^-5 M 2-mercaptoethanol and 10% heat inactivated fetal calf serum (Flow Lab). Cultures were maintained in 5% CO2 at 37° C. One μCi of ^3 H-thymidine (Isotop®) was added to each well 4 hours before the end of the incubation period. Incorporation of ^3 H-thymidine into cellular DNA was determined by liquid scintillation counting using standard techniques. Oligoadenylate was added to the medium at the beginning of culturing to achieve the final concentration.\n(Con A being a mitogen for T-lymphocytes and LPS being a mitogen for β-lymphocytes)."}, "[2]": {"test_system": "α-interferon and γ-interferon", "experiment": "Immune system of monkeys: α- and γ-interferon", "assay_type": "in vivo, Macaque Rh. monkeys", "procedure": "Immunosuppressive activity of the prototype 2'-5'A3 and two analogues (2'-5')A2 Ar-epoxy and (2'-5')A2 A^l-epoxy were investigated in monkeys. The experiments were performed on 4 year-old Macaque Rh. monkeys. The levels of the principal subpopulations of T-lymphocytes, IgA, IgG, IgM and the amount of α- and γ-interferon and interleukin II after administration (2'-5')olygoadenylate and its analogies at the concentration of 50 and 25 μg/kg of the body weight was investigated.\nSerum levels of IgG, IgA, IgM were determined by radial immunodiffusion using antisera against human immunoglobulin A, M, G. The amount of interferon and interleukine-II were determined by the method of Lopez-Botet M. et al., 1982."}, "[3]": {"settings": "single IV 25 μg/kg, day 0 (baseline)"}, "[4]": {"settings": "single IV 50 μg/kg, day 0 (baseline)"}},
  "note": "“Also recorded” adds a separate entry of the source.",
  "data": [
    {"substance": "Adenylyl (2'-5')adenylyl (2'-5')-9-(2,3-anhydro-β-D-ribofuranosyl) adenine disodium salt [(2'-5')A2 Ar-epoxy]", "values": [
      {"measurement": "DNA synthesis at [^3 H]-thymidine [incorporated counts/min.]", "setting": "[1]; 5 × 10^-6 M, control 27,133", "value": "21,464 counts/min."},
      {"measurement": "inhibition of lymphocyte blast-transformation, in words", "setting": "[1]; LPS, β-lymphocytes", "value": "weaker effect of the division of β-lymphocytes"},
      {"measurement": "DNA synthesis at [^3 H]-thymidine [incorporated counts/min.]", "setting": "[1]; Table 4, 5 × 10^-6 M, control 10,766", "value": "7,665 counts/min."},
      {"measurement": "DNA synthesis at [^3 H]-thymidine [incorporated counts/min.]", "setting": "[1]; Table 4, 5 × 10^-7 M, control 10,766", "value": "6,018 counts/min."},
      {"measurement": "DNA synthesis at [^3 H]-thymidine [incorporated counts/min.]", "setting": "[1]; Table 4, 5 × 10^-8 M, control 10,766", "value": "4,767 counts/min."},
      {"measurement": "DNA synthesis at [^3 H]-thymidine [incorporated counts/min.]", "setting": "[1]; Table 4, 5 × 10^-9 M, control 10,766", "value": "7,348 counts/min."},
      {"measurement": "DNA synthesis at [^3 H]-thymidine [incorporated counts/min.]", "setting": "[1]; Table 4, 5 × 10^-10 M, control 10,766", "value": 672, "unit": "counts/min."},
      {"measurement": "DNA synthesis at [^3 H]-thymidine [incorporated counts/min.]", "setting": "[1]; Table 5, 5 × 10^-6 M, control 5,513", "value": 131, "unit": "counts/min."},
      {"measurement": "DNA synthesis at [^3 H]-thymidine [incorporated counts/min.]", "setting": "[1]; Table 5, 5 × 10^-7 M, control 5,513", "value": 292, "unit": "counts/min."},
      {"measurement": "DNA synthesis at [^3 H]-thymidine [incorporated counts/min.]", "setting": "[1]; Table 5, 5 × 10^-8 M, control 5,513", "value": 655, "unit": "counts/min."},
      {"measurement": "DNA synthesis at [^3 H]-thymidine [incorporated counts/min.]", "setting": "[1]; Table 5, 5 × 10^-9 M, control 5,513", "value": "3,342 counts/min."},
      {"measurement": "DNA synthesis at [^3 H]-thymidine [incorporated counts/min.]", "setting": "[1]; Table 5, 5 × 10^-10 M, control 5,513", "value": "1,213 counts/min."},
      {"measurement": "effect on interferon, in words", "setting": "[2]; monkeys, single IV, two weeks, disodium salt", "value": "stimulates the level of α-interferon and γ-interferon in blood lymphocytes for a period of two weeks; also recorded: the quantity of α-interferon in blood plasma tends to normalize; also recorded: does not suppress the production of γ-interferon"},
      {"measurement": "α-interferon of lymphocytes", "setting": "[2]; [3]", "value": "16 Units per 10,000 lymphocytes"},
      {"measurement": "α-interferon of plasma", "setting": "[2]; [3]", "value": "8 Units per 10,000 lymphocytes"},
      {"measurement": "γ-interferon of lymphocytes", "setting": "[2]; [3]", "value": "4 Units per 10,000 lymphocytes"},
      {"measurement": "α-interferon of lymphocytes", "setting": "[2]; single IV 25 μg/kg, day 1", "value": "32 Units per 10,000 lymphocytes"},
      {"measurement": "α-interferon of plasma", "setting": "[2]; single IV 25 μg/kg, day 1", "value": "8 Units per 10,000 lymphocytes"},
      {"measurement": "γ-interferon of lymphocytes", "setting": "[2]; single IV 25 μg/kg, day 1", "value": "16 Units per 10,000 lymphocytes"},
      {"measurement": "α-interferon of lymphocytes", "setting": "[2]; single IV 25 μg/kg, day 2", "value": "32 Units per 10,000 lymphocytes"},
      {"measurement": "α-interferon of plasma", "setting": "[2]; single IV 25 μg/kg, day 2", "value": "4 Units per 10,000 lymphocytes"},
      {"measurement": "γ-interferon of lymphocytes", "setting": "[2]; single IV 25 μg/kg, day 2", "value": "16 Units per 10,000 lymphocytes"},
      {"measurement": "α-interferon of lymphocytes", "setting": "[2]; single IV 25 μg/kg, day 12", "value": "32 Units per 10,000 lymphocytes"},
      {"measurement": "α-interferon of plasma", "setting": "[2]; single IV 25 μg/kg, day 12", "value": "4 Units per 10,000 lymphocytes"},
      {"measurement": "γ-interferon of lymphocytes", "setting": "[2]; single IV 25 μg/kg, day 12", "value": "16 Units per 10,000 lymphocytes"},
      {"measurement": "α-interferon of lymphocytes", "setting": "[2]; single IV 25 μg/kg, day 21", "value": "16 Units per 10,000 lymphocytes"},
      {"measurement": "α-interferon of plasma", "setting": "[2]; single IV 25 μg/kg, day 21", "value": "4 Units per 10,000 lymphocytes"},
      {"measurement": "γ-interferon of lymphocytes", "setting": "[2]; single IV 25 μg/kg, day 21", "value": "8 Units per 10,000 lymphocytes"},
      {"measurement": "α-interferon of lymphocytes", "setting": "[2]; [4]", "value": "32 Units per 10,000 lymphocytes"},
      {"measurement": "α-interferon of plasma", "setting": "[2]; [4]", "value": "16 Units per 10,000 lymphocytes"},
      {"measurement": "γ-interferon of lymphocytes", "setting": "[2]; [4]", "value": "4 Units per 10,000 lymphocytes"},
      {"measurement": "α-interferon of lymphocytes", "setting": "[2]; single IV 50 μg/kg, day 1", "value": "32 Units per 10,000 lymphocytes"},
      {"measurement": "α-interferon of plasma", "setting": "[2]; single IV 50 μg/kg, day 1", "value": "32 Units per 10,000 lymphocytes"},
      {"measurement": "γ-interferon of lymphocytes", "setting": "[2]; single IV 50 μg/kg, day 1", "value": "8 Units per 10,000 lymphocytes"},
      {"measurement": "α-interferon of lymphocytes", "setting": "[2]; single IV 50 μg/kg, day 2", "value": "64 Units per 10,000 lymphocytes"},
      {"measurement": "α-interferon of plasma", "setting": "[2]; single IV 50 μg/kg, day 2", "value": "4 Units per 10,000 lymphocytes"},
      {"measurement": "γ-interferon of lymphocytes", "setting": "[2]; single IV 50 μg/kg, day 2", "value": "32 Units per 10,000 lymphocytes"},
      {"measurement": "α-interferon of lymphocytes", "setting": "[2]; single IV 50 μg/kg, day 12", "value": "64 Units per 10,000 lymphocytes"},
      {"measurement": "α-interferon of plasma", "setting": "[2]; single IV 50 μg/kg, day 12", "value": "4 Units per 10,000 lymphocytes"},
      {"measurement": "γ-interferon of lymphocytes", "setting": "[2]; single IV 50 μg/kg, day 12", "value": "32 Units per 10,000 lymphocytes"},
      {"measurement": "α-interferon of lymphocytes", "setting": "[2]; single IV 50 μg/kg, day 21", "value": "32 Units per 10,000 lymphocytes"},
      {"measurement": "α-interferon of plasma", "setting": "[2]; single IV 50 μg/kg, day 21", "value": "4 Units per 10,000 lymphocytes"},
      {"measurement": "γ-interferon of lymphocytes", "setting": "[2]; single IV 50 μg/kg, day 21", "value": "8 Units per 10,000 lymphocytes"}
    ]}
  ]
}
